Measured values from patent publication US9777017B2, “Tricyclic fused thiophene derivatives as JAK inhibitors” (Incyte Corporation, priority 2012, dated 2017).

Experiments:
Type in all cases: biochemical
[1] = biological target: human JAK1 (Homo sapiens, UniProt P23458); assay: In vitro JAK kinase assay (HTRF, phosphorylation of a biotinylated peptide), JAK1; settings: 1 mM ATP
Experimental: (§1) Compounds herein were tested for inhibitory activity of JAK targets according to the following in vitro assay described in Park et al., Analytical Biochemistry 1999, 269, 94-104. The catalytic domains of human JAK1 (a.a. 837-1142), JAK2 (a.a. 828-1132) and JAK3 (a.a. 781-1124) were expressed using baculovirus in insect cells and purified. The catalytic activity of JAK1, JAK2 or JAK3 was assayed by measuring the phosphorylation of a biotinylated peptide. The phosphorylated peptide was detected by homogenous time resolved fluorescence (HTRF). IC50s of compounds were measured for each kinase in the 40 μL reactions that contain the enzyme, ATP and 500 nM peptide in 50 mM Tris (pH 7.8) buffer with 100 mM NaCl, 5 mM DTT, and 0.1 mg/mL (0.01%) BSA. For the 1 mM IC50 measurements, ATP concentration in the reactions was 1 mM. Reactions were carried out at room temperature for 1 hour and then stopped with 20 μL 45 mM EDTA, 300 nM SA-APC, 6 nM Eu-Py20 in assay buffer (Perkin Elmer, Boston, Mass.). Binding to the Europium labeled antibody took place for 40 minutes and HTRF signal was measured on a PHERA star plate reader (BMG, Cary, N.C.). The Example compounds were each tested in the Example A assay (see Table 1 for data for the compounds of the examples as tested by the assay of Example A at 1 mM ATP).

[2] = system: human JAK1; assay: as above; settings: ratio of IC50s, 1 mM ATP
Experimental: as §1

[3] = biological target: human JAK2 (Homo sapiens (Human), UniProt O60674); assay: In vitro JAK kinase assay (HTRF, phosphorylation of a biotinylated peptide), JAK2; set-up: key to JAK2 IC50 (nM): +indicates an IC50 of ≦100 nM; ++indicates an IC50 of ≦1000 nM; +++indicates an IC50 of ≦2000 nM; ++++indicates an IC50 of >2000 nM; +++++indicates that the IC50 was greater than the highest concentration tested; settings: 1 mM ATP
human JAK2, sequence (O60674 828-1132): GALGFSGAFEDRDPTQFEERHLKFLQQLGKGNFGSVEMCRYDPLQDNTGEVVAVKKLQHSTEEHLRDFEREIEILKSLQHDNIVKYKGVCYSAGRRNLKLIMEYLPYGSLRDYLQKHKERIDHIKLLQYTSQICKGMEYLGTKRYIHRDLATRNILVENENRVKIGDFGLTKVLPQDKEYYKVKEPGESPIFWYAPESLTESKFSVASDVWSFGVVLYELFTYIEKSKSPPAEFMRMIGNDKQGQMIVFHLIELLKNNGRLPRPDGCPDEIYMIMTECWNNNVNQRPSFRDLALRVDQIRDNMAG
Experimental: as §1

CN1CC(c2nc3cnc4ccsc4c3n2[C@H]2CC[C@H](CC#N)CC2)C1 [Example 29, {trans-4-[2-(1-Methylazetidin-3-yl)-1H-imidazo[4,5-d]thieno[3,2-b]pyridin-1-yl]cyclohexyl}acetonitrile]
IC50 [1]: ≤ 1000 nM | JAK2/JAK1 [2]: >9 | IC50 [3]: ≤ 2000 nM

CCNC(=O)C[C@H]1CC[C@H](n2c([C@@H](C)O)nc3cnc4ccsc4c32)CC1 [Example 31, N-Ethyl-2-(trans-4-{2-[(1R)-1-hydroxyethyl]-1H-imidazo[4,5-d]thieno[3,2-b]pyridin-1-yl}cyclohexyl)acetamide]
IC50 [1]: ≤ 1000 nM | JAK2/JAK1 [2]: >10 | JAK2 IC50 (nM) [3]: +++++

C[C@@H](O)c1nc2cnc3ccsc3c2n1C1CCCC(CCC#N)C1 (stereo partly drawn) [Example 32, 3-(3-{2-[(1R)-1-Hydroxyethyl]-1H-imidazo[4,5-d]thieno[3,2-b]pyridin-1-yl}cyclohexyl)propanenitrile]
IC50 [1]: ≤ 100 nM | JAK2/JAK1 [2]: >10 | IC50 [3]: > 2000 nM

Cc1nc2cnc3ccsc3n2c1-c1ccc(CC#N)cc1 [Example 33, [4-(7-Methylimidazo[1,2-a]thieno[3,2-e]pyrazin-8-yl)phenyl]acetonitrile]
IC50 [1]: ≤ 100 nM | JAK2/JAK1 [2]: >7 | IC50 [3]: ≤ 1000 nM

Cc1nc2cnc3ccsc3c2n1[C@H]1CC[C@H](CC#N)OC1 [Example 38, [(2R,5S)-5-(2-Methyl-1H-imidazo[4,5-d]thieno[3,2-b]pyridin-1-yl)tetrahydro-2H-pyran-2-yl]acetonitrile]
IC50 [1]: ≤ 100 nM | JAK2/JAK1 [2]: >10 | IC50 [3]: ≤ 100 nM

CCc1nc2cnc3ccsc3c2n1[C@H]1CC[C@H](CC#N)OC1 [Example 39, [(2R,5S)-5-(2-Ethyl-1H-imidazo[4,5-d]thieno[3,2-b]pyridin-1-yl)tetrahydro-2H-pyran-2-yl]acetonitrile]
IC50 [1]: ≤ 100 nM | JAK2/JAK1 [2]: >10 | IC50 [3]: ≤ 1000 nM

CC(C)c1nc2cnc3ccsc3c2n1[C@H]1CC[C@H](CC#N)OC1 [Example 42, [(2R,5S)-5-(2-Isopropyl-1H-imidazo[4,5-d]thieno[3,2-b]pyridin-1-yl)tetrahydro-2H-pyran-2-yl]acetonitrile]
IC50 [1]: ≤ 100 nM | JAK2/JAK1 [2]: >10 | IC50 [3]: ≤ 1000 nM

N#CC[C@H]1CC[C@H](n2c(C3CC3)nc3cnc4ccsc4c32)CO1 [Example 43, [(2R,5S)-5-(2-Cyclopropyl-1H-imidazo[4,5-d]thieno[3,2-b]pyridin-1-yl)tetrahydro-2H-pyran-2-yl]acetonitrile]
IC50 [1]: ≤ 100 nM | JAK2/JAK1 [2]: >10 | IC50 [3]: ≤ 1000 nM

C[C@@H](O)c1nc2cnc3ccsc3c2n1[C@@H]1CC[C@@H](CC#N)OC1 [Example 44, ((2S,5R)-5-{2-[(1R)-1-Hydroxyethyl]-1H-imidazo[4,5-b]thieno[3,2-b]pyridin-1-yl}tetrahydro-2H-pyran-2-yl)acetonitrile]
IC50 [1]: ≤ 1000 nM | JAK2/JAK1 [2]: >10 | JAK2 IC50 (nM) [3]: +++++

C[C@H](O)c1nc2cnc3ccsc3c2n1[C@H]1CC[C@H](CC#N)OC1 [Example 45, ((2R,5S)-5-{2-[(1S)-1-Hydroxyethyl]-1H-imidazo[4,5-d]thieno[3,2-b]pyridin-1-yl}tetrahydro-2H-pyran-2-yl)acetonitrile]
IC50 [1]: ≤ 100 nM | JAK2/JAK1 [2]: >10 | IC50 [3]: > 2000 nM

CCc1nc2cnc3ccsc3c2n1[C@H]1CC[C@H](CC#N)CC1 [Example 47, [trans-4-(2-Ethyl-1H-imidazo[4,5-d]thieno[3,2-b]pyridin-1-yl)cyclohexyl]acetonitrile]
IC50 [1]: ≤ 100 nM | JAK2/JAK1 [2]: >10 | IC50 [3]: ≤ 1000 nM

Cc1nc2cnc3ccsc3c2n1[C@H]1CC[C@H](CC#N)CC1 [Example 48, [trans-4-(2-Methyl-1H-imidazo[4,5-d]thieno[3,2-b]pyridin-1-yl)cyclohexyl]acetonitrile]
IC50 [1]: ≤ 100 nM | JAK2/JAK1 [2]: >7 | IC50 [3]: ≤ 100 nM

C[C@@H](O)c1nc2cnc3ccsc3c2n1[C@H]1CC[C@@H](CC#N)C1.O=C(O)C(F)(F)F [Example 49, ((4R,3S)-3-{2-[(1R)-1-Hydroxyethyl]-1H-imidazo[4,5-d]thieno[3,2-b]pyridin-1-yl}cyclopentyl)acetonitrile trifluoroacetate]
IC50 [1]: ≤ 1000 nM | JAK2/JAK1 [2]: >10 | JAK2 IC50 (nM) [3]: +++++

CCOC(=O)N1CCC[C@H](n2c([C@@H](C)O)nc3cnc4ccsc4c32)C1 [Example 50, Ethyl (3S)-3-{2-[(1R)-1-hydroxyethyl]-1H-imidazo[4,5-d]thieno[3,2-b]pyridin-1-yl}piperidine-1-carboxylate]
IC50 [1]: ≤ 1000 nM | JAK2/JAK1 [2]: >10 | JAK2 IC50 (nM) [3]: +++++

C[C@@H](O)c1nc2cnc3ccsc3c2n1[C@H]1CCCN(C(=O)CC#N)C1.O=C(O)C(F)(F)F [Example 51, 3-((3S)-3-{2-[(1R)-1-Hydroxyethyl]-1H-imidazo[4,5-d]thieno[3,2-b]pyridin-1-yl}piperidin-1-yl)-3-oxopropanenitrile trifluoroacetate]
IC50 [1]: ≤ 1000 nM | JAK2/JAK1 [2]: >10 | IC50 [3]: > 2000 nM

C[C@@H](O)c1nc2cnc3ccsc3c2n1[C@H]1CCCN(C(=O)CCc2cn[nH]c2)C1 [Example 53, (1R)-1-(1-{(3S)-1-[3-(1H-Pyrazol-4-yl)propanoyl]piperidin-3-yl}-1H-imidazo[4,5-d]thieno[3,2-b]pyridin-2-yl)ethanol]
IC50 [1]: ≤ 1000 nM | JAK2/JAK1 [2]: >10 | JAK2 IC50 (nM) [3]: +++++

C[C@@H](O)c1nc2cnc3ccsc3c2n1[C@H]1CCCN(C(=O)CCc2cccnc2)C1 [Example 54, (1R)-1-{1-[(3S)-1-(3-Pyridin-3-ylpropanoyl)piperidin-3-yl]-1H-imidazo[4,5-d]thieno[3,2-b]pyridin-2-yl}ethanol]
IC50 [1]: ≤ 1000 nM | JAK2/JAK1 [2]: >10 | JAK2 IC50 (nM) [3]: +++++

CC(CC(=O)N1CCC[C@H](n2c([C@@H](C)O)nc3cnc4ccsc4c32)C1)c1ccccc1 (stereo partly drawn) [Example 55, (1R)-1-{1-[(3S)-1-(3-Phenylbutanoyl)piperidin-3-yl]-1H-imidazo[4,5-d]thieno[3,2-b]pyridin-2-yl}ethanol]
IC50 [1]: ≤ 1000 nM | JAK2/JAK1 [2]: >10 | JAK2 IC50 (nM) [3]: +++++

C[C@@H](O)c1nc2cnc3ccsc3c2n1[C@H]1CCCN(CCC#N)C1 [Example 56, 3-((3S)-3-{2-[(1R)-1-Hydroxyethyl]-1H-imidazo[4,5-d]thieno[3,2-b]pyridin-1-yl}piperidin-1-yl)propanenitrile]
IC50 [1]: ≤ 1000 nM | JAK2/JAK1 [2]: >10 | JAK2 IC50 (nM) [3]: +++++

C[C@@H](O)c1nc2cnc3ccsc3c2n1[C@H]1CCCN(C(=O)CCc2ccccc2)C1 [Example 57]
IC50 [1]: ≤ 100 nM | JAK2/JAK1 [2]: >10 | IC50 [3]: > 2000 nM

C[C@@H](O)c1nc2cnc3ccsc3c2n1[C@H]1CCCN(C(=O)CCC#N)C1 [Example 58, 4-((3S)-3-{2-[(1R)-1-Hydroxyethyl]-1H-imidazo[4,5-d]thieno[3,2-b]pyridin-1-yl}piperidin-1-yl)-4-oxobutanenitrile]
IC50 [1]: ≤ 100 nM | JAK2/JAK1 [2]: >10 | JAK2 IC50 (nM) [3]: +++++

C[C@@H](O)c1nc2cnc3ccsc3c2n1[C@H]1CCCN(C(=O)CCCC#N)C1 [Example 59, 5-((3S)-3-{2-[(1R)-1-Hydroxyethyl]-1H-imidazo[4,5-d]thieno[3,2-b]pyridin-1-yl}piperidin-1-yl)-5-oxopentanenitrile]
IC50 [1]: ≤ 1000 nM | JAK2/JAK1 [2]: >10 | JAK2 IC50 (nM) [3]: +++++

C[C@@H](O)c1nc2cnc3ccsc3c2n1C1CCN(CCCC(F)(F)F)CC1 [Example 60, (1R)-1-{1-[1-(4,4,4-Trifluorobutyl)piperidin-4-yl]-1H-imidazo[4,5-d]thieno[3,2-b]pyridin-2-yl}ethanol]
IC50 [1]: ≤ 1000 nM | JAK2/JAK1 [2]: >10 | JAK2 IC50 (nM) [3]: +++++

C[C@@H](O)c1nc2cnc3ccsc3c2n1C1CCN(CC#N)CC1.O=C(O)C(F)(F)F [Example 61, (4-{2-[(1R)-1-Hydroxyethyl]-1H-imidazo[4,5-d]thieno[3,2-b]pyridin-1-yl}piperidin-1-yl)acetonitrile trifluoroacetate]
IC50 [1]: ≤ 1000 nM | JAK2/JAK1 [2]: >10 | JAK2 IC50 (nM) [3]: +++++

C[C@@H](O)c1nc2cnc3ccsc3c2n1[C@H]1CCN(CCC#N)C1 [Example 62, 3-((3S)-3-{2-[(1R)-1-Hydroxyethyl]-1H-imidazo[4,5-d]thieno[3,2-b]pyridin-1-yl}pyrrolidin-1-yl)propanenitrile]
IC50 [1]: ≤ 1000 nM | JAK2/JAK1 [2]: >10 | IC50 [3]: > 2000 nM
